Data: patent US6815443B2, “5-Amino-1-pentene-3-ol substituted derivatives” (Gruenenthal GmbH, priority 2000, dated 2004)

These molecules were tested on phenylquinone-induced writhing in male NMRI mice (assay: phenylquinone-induced writhing test in mice). Conditions: 2.15 mg/kg.
Assay type: in vivo
Description: The investigation of the analgesic efficacy was carried out according to the phenylquinone-induced writhing test in mice (as modified by I. C. Hendershot and J. Forsaith J. Pharmacol. Exp. Ther. 1959 125, 237-240). For this purpose male NMRI mice weighing 25 to 30 g were used. Groups of 10 animals per substance dose received, 10 minutes after intravenous administration of the test substances, 0.3 ml/mouse of a 0.02% aqueous solution of phenylquinone (phenyl benzoquinone, from Sigma, Deisenhofen; solution prepared by addition of 5% of ethanol and storage in a water bath at 45° C.) applied intraperitoneally. The animals were placed individually in observation cages. The number of pain-induced stretching movements (so-called writhing reactions=contortion of the body accompanied by stretching of the rear extremities) was counted using a push-button counter 5 to 20 minutes after administration of the phenylquinone. Animals that had received only physiological saline served as controls. The number of responding animals was determined for some of the examples.
With `CN(C)CC1CCCCC(=Cc2ccccc2)C1(O)c1cccc(O)c1.Cl` (centres unmarked) [Example 407, 2-benzylidene-7-dimethylaminomethyl-1-(3-hydroxyphenyl)-cycloheptanol, hydrochloride] the “Responding Animals/Control Animals (Writhing IV)” value was 6/10 (2.15 mg/kg).

Same assay, conditions: 10 mg/kg
With `COc1cccc(C=C2CCCCC(CN(C)C)C2(O)c2cccc(O)c2)c1.Cl` (centres unmarked) [Example 408, 2-dimethylaminomethyl-1-(3-hydroxyphenyl)-7-(3-methoxy-benzylidene)-cycloheptanol, hydrochloride] the “Responding Animals/Control Animals (Writhing IV)” value was 9/10 (10 mg/kg). With `COc1cccc(C2(O)C(=Cc3ccccc3)CCCCC2CN(C)C)c1.Cl` (centres unmarked) [Example 409, 2-benzylidene-7-dimethylaminomethyl-1-(3-methoxyphenyl)-cycloheptanol, hydrochloride] the “Responding Animals/Control Animals (Writhing IV)” value was 5/10 (10 mg/kg). `CC(=Cc1ccccc1)C(O)(c1cccc(O)c1)C(C)CCN(C)C.Cl` (centres unmarked) [Example 410, 3-[1-(2-dimethylaminomethyl-1-methylethyl)-1-hydroxy-2-methyl-3-phenyl-allyl]-phenol, hydrochloride] was tested, and the “Responding Animals/Control Animals (Writhing IV)” value was 5/10 (10 mg/kg). For `CN(C)CC1CCCC(=Cc2ccccc2)C1(O)c1cccc(O)c1.Cl` (centres unmarked) [Example 413, 3-(2-benzylidene-6-dimethylaminomethyl-1-hydroxycyclohexyl)-phenol, hydrochloride], the “Responding Animals/Control Animals (Writhing IV)” value was 4/10 (10 mg/kg). With `CC(=Cc1ccccc1)C(O)(Cc1ccc(Cl)cc1)C(C)CN(C)C.Cl` (centres unmarked) [Example 411, 3-(4-chlorobenzyl)-5-dimethylamino-2,4-dimethyl-1-phenyl-pent-1-en-3-ol, hydrochloride] the “Responding Animals/Control Animals (Writhing IV)” value was 3/10 (10 mg/kg). In the case of `COc1cccc(C(O)(C(C)=Cc2ccccc2)C(C)CN(C)C)c1.Cl` (centres unmarked) [Example 412, 5-dimethylamino-3-(3-methoxyphenyl)-2,4-dimethyl-1-phenyl-pent-1-en-3-ol, hydrochloride], the “Responding Animals/Control Animals (Writhing IV)” value was 9/10 (10 mg/kg).

The molecules below were run on gabapentin binding site (assay: gabapentin binding assay (displacement of gabapentin from its binding site)). Conditions: not given.
Description: Gabapentin is used in the binding assay in order to investigate the binding and affinities of the selected compounds. The affinity of the compounds according to the invention is measured via the displacement of gabapentin from its binding site.
For `CC(=Cc1ccccc1)C(O)(c1ccccc1)C(C)CN(C)C` (centres unmarked) [Example 120, 5-dimethylamino-2,4-dimethyl-1,3-diphenyl-pent-1-en-3-ol], the “% Inhibition gabapentin, 10 μmole” value was 37%. With `CC(=Cc1ccccc1)C(O)(Cc1cccc(Cl)c1)C(C)CN(C)C` (centres unmarked) [Example 156, 3-(3-chlorobenzyl)-5-dimethylamino-2,4-dimethyl-1-phenyl-pent-1-en-3-ol] the “% Inhibition gabapentin, 10 μmole” value was 46%. `COc1cccc(CC(O)(C(C)=Cc2ccc(Cl)cc2)C(C)CN(C)C)c1` (centres unmarked) [Example 223, 1-(4-chlorophenyl)-5-dimethylamino-3-(3-methoxybenzyl)-2,4-dimethyl-pent-1-en-3-ol] was tested, and the “% Inhibition gabapentin, 10 μmole” value was 40%. For `CC(=Cc1ccccc1)C(O)(Cc1cccc(C)c1)C(C)CN(C)C` (centres unmarked) [Example 152, 5-dimethylamino-2,4-dimethyl-3-(3-methylbenzyl)-1-phenyl-pent-1-en-3-ol], the “% Inhibition gabapentin, 10 μmole” value was 30%. For `COc1ccc(C2(O)C(=Cc3cccc(OC)c3)CCCCC2CN(C)C)cc1` (centres unmarked) [Example 369, 2-dimethylaminomethyl-7-(3-methoxybenzylidene)-1-(4-methoxyphenyl)-cycloheptanol], the “% Inhibition gabapentin, 10 μmole” value was 43%. For `COc1cccc(C=C2CCCCC(CN(C)C)C2(O)c2ccc(Cl)cc2)c1` (centres unmarked) [Example 353, 1-(4-chlorophenyl)-2-dimethylaminomethyl-7-(3-methoxy-benzylidene)-cycloheptanol], the “% Inhibition gabapentin, 10 μmole” value was 44%. In the case of `COc1cccc(CC(O)(C(C)=Cc2ccc(F)cc2)C(C)CN(C)C)c1` (centres unmarked) [Example 184, 5-dimethylamino-1-(4-fluorophenyl)-3-(3-methoxybenzyl)-2,4-dimethyl-pent-1-en-3-ol], the “% Inhibition gabapentin, 10 μmole” value was 47%.
